Test system: LOLSS: ryegrass including, Italian ryegrass (Lolium multiflorum), rigid ryegrass (Lolium rigidum), annual ryegrass (Lolium multiflorum subsp. Gaudini)
Test: Post-emergent Test III, herbicidal activity in wheat and barley
Format: in vivo
Settings: probit analysis, dose for growth reduction of 50 percent, 21 days after application
Outline: (§1)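 Plants at the second to third true-leaf stage, grown in a greenhouse at about 18/17 °C with a 14 h photoperiod, were sprayed post-emergence at 187 L/ha with the high rate and ½× to 1/16× serial dilutions in an acetone/DMSO/crop-oil/surfactant carrier. Injury was rated visually at 21 d on a 0–100% scale, and GR20–GR90 were derived by probit analysis.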

| SMILES | GR50 LOLSS |
| --- | --- |
| COC(=O)c1nc(-c2ccc(Br)c(F)c2F)cc(N)c1Cl [Compound 114, methyl 4-amino-6-(4-bromo-2,3-difluorophenyl)-3-chloropicolinate] | >140 g ai/ha |

Same assay, conditions: probit analysis, dose for growth reduction of 80 percent, 21 days after application

| SMILES | GR80 LOLSS |
| --- | --- |
| COC(=O)c1nc(-c2ccc(Br)c(F)c2F)cc(N)c1Cl [Compound 114, methyl 4-amino-6-(4-bromo-2,3-difluorophenyl)-3-chloropicolinate] | >140 g ai/ha |

Test system: APESV: bentgrass (Apera spica-venti)
Test: as above
Format: in vivo
Settings: Apera spica-venti, post-emergence, 504 h; 35 g ai/ha; read-out: Visual Growth Reduction (%) 21 Days After Application APESV
Outline: as §1

| SMILES | pest or weed control at 35 g/ha |
| --- | --- |
| COC(=O)c1nc(-c2ccc(Br)c(F)c2F)cc(N)c1Cl [Compound 114, methyl 4-amino-6-(4-bromo-2,3-difluorophenyl)-3-chloropicolinate] | 0 to 29% |

Same assay, conditions: Apera spica-venti, post-emergence, 504 h; 70 g ai/ha; read-out: Visual Growth Reduction (%) 21 Days After Application APESV

| SMILES | pest or weed control at 70 g/ha |
| --- | --- |
| COC(=O)c1nc(-c2ccc(Br)c(F)c2F)cc(N)c1Cl [Compound 114, methyl 4-amino-6-(4-bromo-2,3-difluorophenyl)-3-chloropicolinate] | 0 to 29% |

Same assay, conditions: Apera spica-venti, post-emergence, 504 h; 140 g ai/ha; read-out: Visual Growth Reduction (%) 21 Days After Application APESV

| SMILES | pest or weed control at 140 g/ha |
| --- | --- |
| COC(=O)c1nc(-c2ccc(Br)c(F)c2F)cc(N)c1Cl [Compound 114, methyl 4-amino-6-(4-bromo-2,3-difluorophenyl)-3-chloropicolinate] | 0 to 29% |

Same assay, conditions: probit analysis, dose for growth reduction of 50 percent, 21 days after application

| SMILES | GR50 APESV |
| --- | --- |
| COC(=O)c1nc(-c2ccc(Br)c(F)c2F)cc(N)c1Cl [Compound 114, methyl 4-amino-6-(4-bromo-2,3-difluorophenyl)-3-chloropicolinate] | >140 g ai/ha |

Same assay, conditions: probit analysis, dose for growth reduction of 80 percent, 21 days after application

| SMILES | GR80 APESV |
| --- | --- |
| COC(=O)c1nc(-c2ccc(Br)c(F)c2F)cc(N)c1Cl [Compound 114, methyl 4-amino-6-(4-bromo-2,3-difluorophenyl)-3-chloropicolinate] | >140 g ai/ha |

Test system: MATSS: scented mayweed (Matricaria chamomilla), pineappleweed (Matricaria matricarioides)
Test: as above
Format: in vivo
Settings: Matricaria chamomilla, post-emergence, 504 h; 35 g ai/ha; read-out: Visual Growth Reduction (%) 21 Days After Application MATSS
Outline: as §1

| SMILES | pest or weed control at 35 g/ha |
| --- | --- |
| COC(=O)c1nc(-c2ccc(Br)c(F)c2F)cc(N)c1Cl [Compound 114, methyl 4-amino-6-(4-bromo-2,3-difluorophenyl)-3-chloropicolinate] | 0 to 29% |

Same assay, conditions: Matricaria chamomilla, post-emergence, 504 h; 70 g ai/ha; read-out: Visual Growth Reduction (%) 21 Days After Application MATSS

| SMILES | pest or weed control at 70 g/ha |
| --- | --- |
| COC(=O)c1nc(-c2ccc(Br)c(F)c2F)cc(N)c1Cl [Compound 114, methyl 4-amino-6-(4-bromo-2,3-difluorophenyl)-3-chloropicolinate] | 0 to 29% |

Same assay, conditions: Matricaria chamomilla, post-emergence, 504 h; 140 g ai/ha; read-out: Visual Growth Reduction (%) 21 Days After Application MATSS

| SMILES | pest or weed control at 140 g/ha |
| --- | --- |
| COC(=O)c1nc(-c2ccc(Br)c(F)c2F)cc(N)c1Cl [Compound 114, methyl 4-amino-6-(4-bromo-2,3-difluorophenyl)-3-chloropicolinate] | 0 to 29% |

Same assay, conditions: probit analysis, dose for growth reduction of 50 percent, 21 days after application

| SMILES | GR50 MATSS |
| --- | --- |
| COC(=O)c1nc(-c2ccc(Br)c(F)c2F)cc(N)c1Cl [Compound 114, methyl 4-amino-6-(4-bromo-2,3-difluorophenyl)-3-chloropicolinate] | >140 g ai/ha |

Same assay, conditions: probit analysis, dose for growth reduction of 80 percent, 21 days after application

| SMILES | GR80 MATSS |
| --- | --- |
| COC(=O)c1nc(-c2ccc(Br)c(F)c2F)cc(N)c1Cl [Compound 114, methyl 4-amino-6-(4-bromo-2,3-difluorophenyl)-3-chloropicolinate] | >140 g ai/ha |

Test system: not listed separately
Test: as above
Format: in vivo, Lolium multiflorum, Lolium rigidum
Settings: Lolium multiflorum, post-emergence, 504 h; 35 g ai/ha; read-out: Visual Growth Reduction (%) 21 Days After Application LOLSS
Outline: as §1

| SMILES | pest or weed control at 35 g/ha |
| --- | --- |
| COC(=O)c1nc(-c2ccc(Br)c(F)c2F)cc(N)c1Cl [Compound 114, methyl 4-amino-6-(4-bromo-2,3-difluorophenyl)-3-chloropicolinate] | 0 to 29% |

Same assay, conditions: Lolium multiflorum, post-emergence, 504 h; 70 g ai/ha; read-out: Visual Growth Reduction (%) 21 Days After Application LOLSS

| SMILES | pest or weed control at 70 g/ha |
| --- | --- |
| COC(=O)c1nc(-c2ccc(Br)c(F)c2F)cc(N)c1Cl [Compound 114, methyl 4-amino-6-(4-bromo-2,3-difluorophenyl)-3-chloropicolinate] | 0 to 29% |

Same assay, conditions: Lolium multiflorum, post-emergence, 504 h; 140 g ai/ha; read-out: Visual Growth Reduction (%) 21 Days After Application LOLSS

| SMILES | pest or weed control at 140 g/ha |
| --- | --- |
| COC(=O)c1nc(-c2ccc(Br)c(F)c2F)cc(N)c1Cl [Compound 114, methyl 4-amino-6-(4-bromo-2,3-difluorophenyl)-3-chloropicolinate] | 0 to 29% |

Test system: TRZSS: wheat, including spring and winter (Triticum aestivum)
Test: as above
Format: in vivo
Settings: Triticum aestivum, post-emergence, 504 h; 35 g ai/ha; read-out: Visual Growth Reduction (%) 21 Days After Application TRZSS
Outline: as §1

| SMILES | pest or weed control at 35 g/ha |
| --- | --- |
| COC(=O)c1nc(-c2ccc(Br)c(F)c2F)cc(N)c1Cl [Compound 114, methyl 4-amino-6-(4-bromo-2,3-difluorophenyl)-3-chloropicolinate] | 30 to 44% |

Same assay, conditions: Triticum aestivum, post-emergence, 504 h; 70 g ai/ha; read-out: Visual Growth Reduction (%) 21 Days After Application TRZSS

| SMILES | pest or weed control at 70 g/ha |
| --- | --- |
| COC(=O)c1nc(-c2ccc(Br)c(F)c2F)cc(N)c1Cl [Compound 114, methyl 4-amino-6-(4-bromo-2,3-difluorophenyl)-3-chloropicolinate] | 45 to 59% |

Same assay, conditions: Triticum aestivum, post-emergence, 504 h; 140 g ai/ha; read-out: Visual Growth Reduction (%) 21 Days After Application TRZSS

| SMILES | pest or weed control at 140 g/ha |
| --- | --- |
| COC(=O)c1nc(-c2ccc(Br)c(F)c2F)cc(N)c1Cl [Compound 114, methyl 4-amino-6-(4-bromo-2,3-difluorophenyl)-3-chloropicolinate] | 45 to 59% |

Same assay, conditions: probit analysis, dose for growth reduction of 20 percent, 21 days after application; crop

| SMILES | GR20 TRZSS |
| --- | --- |
| COC(=O)c1nc(-c2ccc(Br)c(F)c2F)cc(N)c1Cl [Compound 114, methyl 4-amino-6-(4-bromo-2,3-difluorophenyl)-3-chloropicolinate] | 16 g ai/ha |

Test system: SETVI: green foxtail (Setaria viridis)
Test: as above
Format: in vivo
Settings: Setaria viridis, post-emergence, 504 h; 35 g ai/ha; read-out: Visual Growth Reduction (%) 21 Days After Application SETVI
Outline: as §1

| SMILES | pest or weed control at 35 g/ha |
| --- | --- |
| COC(=O)c1nc(-c2ccc(Br)c(F)c2F)cc(N)c1Cl [Compound 114, methyl 4-amino-6-(4-bromo-2,3-difluorophenyl)-3-chloropicolinate] | 0 to 29% |

Same assay, conditions: Setaria viridis, post-emergence, 504 h; 70 g ai/ha; read-out: Visual Growth Reduction (%) 21 Days After Application SETVI

| SMILES | pest or weed control at 70 g/ha |
| --- | --- |
| COC(=O)c1nc(-c2ccc(Br)c(F)c2F)cc(N)c1Cl [Compound 114, methyl 4-amino-6-(4-bromo-2,3-difluorophenyl)-3-chloropicolinate] | 0 to 29% |

Same assay, conditions: Setaria viridis, post-emergence, 504 h; 140 g ai/ha; read-out: Visual Growth Reduction (%) 21 Days After Application SETVI

| SMILES | pest or weed control at 140 g/ha |
| --- | --- |
| COC(=O)c1nc(-c2ccc(Br)c(F)c2F)cc(N)c1Cl [Compound 114, methyl 4-amino-6-(4-bromo-2,3-difluorophenyl)-3-chloropicolinate] | 0 to 29% |

Same assay, conditions: probit analysis, dose for growth reduction of 50 percent, 21 days after application

| SMILES | GR50 SETVI |
| --- | --- |
| COC(=O)c1nc(-c2ccc(Br)c(F)c2F)cc(N)c1Cl [Compound 114, methyl 4-amino-6-(4-bromo-2,3-difluorophenyl)-3-chloropicolinate] | >140 g ai/ha |

Same assay, conditions: probit analysis, dose for growth reduction of 80 percent, 21 days after application

| SMILES | GR80 SETVI |
| --- | --- |
| COC(=O)c1nc(-c2ccc(Br)c(F)c2F)cc(N)c1Cl [Compound 114, methyl 4-amino-6-(4-bromo-2,3-difluorophenyl)-3-chloropicolinate] | >140 g ai/ha |

Test system: KCHSC: kochia (Kochia scoparia)
Test: as above
Format: in vivo
Settings: Bassia scoparia, post-emergence, 504 h; 35 g ai/ha; read-out: Visual Growth Reduction (%) 21 Days After Application KCHSC
Outline: as §1

| SMILES | pest or weed control at 35 g/ha |
| --- | --- |
| COC(=O)c1nc(-c2ccc(Br)c(F)c2F)cc(N)c1Cl [Compound 114, methyl 4-amino-6-(4-bromo-2,3-difluorophenyl)-3-chloropicolinate] | 60 to 74% |

Same assay, conditions: Bassia scoparia, post-emergence, 504 h; 70 g ai/ha; read-out: Visual Growth Reduction (%) 21 Days After Application KCHSC

| SMILES | pest or weed control at 70 g/ha |
| --- | --- |
| COC(=O)c1nc(-c2ccc(Br)c(F)c2F)cc(N)c1Cl [Compound 114, methyl 4-amino-6-(4-bromo-2,3-difluorophenyl)-3-chloropicolinate] | 60 to 74% |

Same assay, conditions: Bassia scoparia, post-emergence, 504 h; 140 g ai/ha; read-out: Visual Growth Reduction (%) 21 Days After Application KCHSC

| SMILES | pest or weed control at 140 g/ha |
| --- | --- |
| COC(=O)c1nc(-c2ccc(Br)c(F)c2F)cc(N)c1Cl [Compound 114, methyl 4-amino-6-(4-bromo-2,3-difluorophenyl)-3-chloropicolinate] | 75 to 84% |

Same assay, conditions: probit analysis, dose for growth reduction of 50 percent, 21 days after application

| SMILES | GR50 KCHSC |
| --- | --- |
| COC(=O)c1nc(-c2ccc(Br)c(F)c2F)cc(N)c1Cl [Compound 114, methyl 4-amino-6-(4-bromo-2,3-difluorophenyl)-3-chloropicolinate] | 3 g ai/ha |

Same assay, conditions: probit analysis, dose for growth reduction of 80 percent, 21 days after application

| SMILES | GR80 KCHSC |
| --- | --- |
| COC(=O)c1nc(-c2ccc(Br)c(F)c2F)cc(N)c1Cl [Compound 114, methyl 4-amino-6-(4-bromo-2,3-difluorophenyl)-3-chloropicolinate] | >140 g ai/ha |

Test system: HORSS: barley, including spring and winter (Hordeum vulgare)
Test: as above
Format: in vivo
Settings: Hordeum vulgare, post-emergence, 504 h; 35 g ai/ha; read-out: Visual Growth Reduction (%) 21 Days After Application HORSS
Outline: as §1

| SMILES | pest or weed control at 35 g/ha |
| --- | --- |
| COC(=O)c1nc(-c2ccc(Br)c(F)c2F)cc(N)c1Cl [Compound 114, methyl 4-amino-6-(4-bromo-2,3-difluorophenyl)-3-chloropicolinate] | 0 to 29% |

Same assay, conditions: Hordeum vulgare, post-emergence, 504 h; 70 g ai/ha; read-out: Visual Growth Reduction (%) 21 Days After Application HORSS

| SMILES | pest or weed control at 70 g/ha |
| --- | --- |
| COC(=O)c1nc(-c2ccc(Br)c(F)c2F)cc(N)c1Cl [Compound 114, methyl 4-amino-6-(4-bromo-2,3-difluorophenyl)-3-chloropicolinate] | 30 to 44% |

Same assay, conditions: Hordeum vulgare, post-emergence, 504 h; 140 g ai/ha; read-out: Visual Growth Reduction (%) 21 Days After Application HORSS

| SMILES | pest or weed control at 140 g/ha |
| --- | --- |
| COC(=O)c1nc(-c2ccc(Br)c(F)c2F)cc(N)c1Cl [Compound 114, methyl 4-amino-6-(4-bromo-2,3-difluorophenyl)-3-chloropicolinate] | 30 to 44% |

Same assay, conditions: probit analysis, dose for growth reduction of 20 percent, 21 days after application; crop

| SMILES | GR20 HORSS |
| --- | --- |
| COC(=O)c1nc(-c2ccc(Br)c(F)c2F)cc(N)c1Cl [Compound 114, methyl 4-amino-6-(4-bromo-2,3-difluorophenyl)-3-chloropicolinate] | 42 g ai/ha |

— patent publication US9113629B2, “4-amino-6-(4-substituted-phenyl)-picolinates and 6-amino-2-(4-substituted-phenyl)-pyrimidine-4-carboxylates and their use as herbicides” (DOW AGROSCIENCES LLC, priority 2013, dated 2015)
